In ChEMBL document CHEMBL1145727, “Improvement of biological activity and proteolytic stability of peptides by coupling with a cyclic peptide” (Bioorg Med Chem Lett, 2003):
One block for each molecule: values may come before it. Bridge positions count the residues as written; N and C are the ends. Peptide text beside a SMILES is read from it.

Key:
Integrin alpha-5/beta-1 = Integrin alpha-5/beta-1 (Homo sapiens, UniProt P05556+P08648); assay: Inhibition of mouse melanoma B16-F10 cell adhesion to fibronectin; type: functional, cell-based
[1] = target: Protein farnesyltransferase (Homo sapiens, UniProt P49354+P49356); assay: Inhibition of Farnesyltransferase by Scintillation Proximity Assay; type: protein-complex assay
[2] = target: Protein farnesyltransferase (Bos taurus, UniProt P29702+P49355); assay: In vitro inhibition of farnesylation of v-Ki-Ras by bovine farnesyl transferase; type: protein-complex assay
[3] = target: T1, Integrin alpha-IIb/beta-3 (Homo sapiens) (UniProt P05106+P08514); assay: Inhibition of platelet aggregation at 0.1 mM in platelet-rich plasma (PRP) of citreated rabbit heart blood; type: functional; details: Oryctolagus cuniculus, target entry is the homologue from another species
[4] = target: T1, Integrin alpha-IIb/beta-3 (Homo sapiens); assay: Inhibition of platelet aggregation at 0.3 mM in platelet-rich plasma (PRP) of citreated rabbit heart blood; type: functional; details: Oryctolagus cuniculus, target entry is the homologue from another species
[5] = target: T1, Integrin alpha-IIb/beta-3 (Homo sapiens); assay: Inhibition of platelet aggregation at 1 mM in platelet-rich plasma (PRP) of citreated rabbit heart blood; type: functional; details: Oryctolagus cuniculus, target entry is the homologue from another species

Sequence of Integrin alpha-5/beta-1 (P05556 21-798 limits assumed): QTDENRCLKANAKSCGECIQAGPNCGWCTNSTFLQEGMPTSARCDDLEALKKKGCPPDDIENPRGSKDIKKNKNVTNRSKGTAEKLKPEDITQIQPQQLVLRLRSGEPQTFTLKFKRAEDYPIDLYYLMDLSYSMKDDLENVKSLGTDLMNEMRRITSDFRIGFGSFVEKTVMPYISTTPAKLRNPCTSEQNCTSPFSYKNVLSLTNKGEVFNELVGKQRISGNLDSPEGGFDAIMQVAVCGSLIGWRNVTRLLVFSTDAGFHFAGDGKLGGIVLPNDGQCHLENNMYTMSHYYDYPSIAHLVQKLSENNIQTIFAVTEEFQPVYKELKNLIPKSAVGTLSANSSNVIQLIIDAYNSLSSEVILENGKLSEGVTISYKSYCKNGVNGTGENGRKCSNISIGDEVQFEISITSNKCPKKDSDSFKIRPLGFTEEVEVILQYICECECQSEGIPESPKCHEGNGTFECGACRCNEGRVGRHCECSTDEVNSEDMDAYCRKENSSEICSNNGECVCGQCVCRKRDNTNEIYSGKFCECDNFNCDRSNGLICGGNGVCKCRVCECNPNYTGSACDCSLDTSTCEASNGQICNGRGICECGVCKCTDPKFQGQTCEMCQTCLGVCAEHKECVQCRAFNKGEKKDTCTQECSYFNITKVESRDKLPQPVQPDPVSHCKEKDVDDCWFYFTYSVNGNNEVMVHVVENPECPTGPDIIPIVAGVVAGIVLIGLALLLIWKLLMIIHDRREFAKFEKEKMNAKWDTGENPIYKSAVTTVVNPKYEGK
Sequence of Integrin alpha-5/beta-1 (P08648 42-894 limits assumed): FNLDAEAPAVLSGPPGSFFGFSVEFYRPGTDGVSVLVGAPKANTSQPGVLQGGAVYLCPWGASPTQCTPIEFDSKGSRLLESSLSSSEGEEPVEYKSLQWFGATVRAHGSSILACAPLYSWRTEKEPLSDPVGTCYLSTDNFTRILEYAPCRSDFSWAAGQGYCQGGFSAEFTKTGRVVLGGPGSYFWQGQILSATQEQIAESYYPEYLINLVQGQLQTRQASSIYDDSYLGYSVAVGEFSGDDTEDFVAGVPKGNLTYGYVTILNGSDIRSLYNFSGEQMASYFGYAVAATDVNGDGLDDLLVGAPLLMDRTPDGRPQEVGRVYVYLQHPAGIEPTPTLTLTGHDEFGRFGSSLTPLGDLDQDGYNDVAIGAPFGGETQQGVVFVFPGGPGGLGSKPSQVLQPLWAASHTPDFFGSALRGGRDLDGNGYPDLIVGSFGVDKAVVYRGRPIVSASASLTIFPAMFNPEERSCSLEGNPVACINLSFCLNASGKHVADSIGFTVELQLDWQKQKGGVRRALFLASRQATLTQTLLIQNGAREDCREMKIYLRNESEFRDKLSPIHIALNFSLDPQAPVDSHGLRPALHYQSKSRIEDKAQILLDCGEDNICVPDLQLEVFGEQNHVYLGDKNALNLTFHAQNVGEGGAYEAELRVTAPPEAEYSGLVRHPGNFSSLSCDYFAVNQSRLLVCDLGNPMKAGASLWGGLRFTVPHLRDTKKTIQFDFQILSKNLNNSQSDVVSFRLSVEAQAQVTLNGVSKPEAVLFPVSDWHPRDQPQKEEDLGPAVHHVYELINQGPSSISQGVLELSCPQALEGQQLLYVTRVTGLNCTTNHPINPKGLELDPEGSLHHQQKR
Sequence of Integrin alpha-5/beta-1 (P08648 895-1049 limits assumed): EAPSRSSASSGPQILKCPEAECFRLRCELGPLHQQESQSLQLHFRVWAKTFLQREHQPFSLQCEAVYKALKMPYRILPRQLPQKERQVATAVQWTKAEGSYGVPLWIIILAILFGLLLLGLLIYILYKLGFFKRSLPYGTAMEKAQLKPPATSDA

IC50 (Integrin alpha-5/beta-1): 1000 µM
Molecule: H-VYAVTGRGDSPA-NH2

IC50 [1]: 0.42 µM
IC50 [2]: 560 µM
Molecule: CSCC[C@H](NC(=O)[C@@H](NC(=O)[C@@H](NC(=O)[C@H](CS)NC(=O)[C@H]1CCCN1C(=O)[C@H](CC(C)C)NC(=O)CNC(=O)[C@H](CCSC)NC(=O)[C@H](CO)N[C@H]1CC(=O)NCC(=O)N[C@H](CC(N)=O)C(=O)N[C@@H](Cc2c[nH]c3ccccc23)C(=O)N[C@H](Cc2c[nH]cn2)C(=O)NCC(=O)N[C@H]([C@@H](C)O)C(=O)N[C@@H](C)C(=O)N2CCC[C@@H]2C(=O)N1)C(C)C)C(C)C)C(=O)O

Inhibitory ratio [3]: 28.3%
Inhibitory ratio [4]: 78.4%
Inhibitory ratio [5]: 92.1%
Molecule: CC(C)[C@H](NC(=O)[C@H]1CC(=O)NCC(=O)N[C@H](CC(N)=O)C(=O)N[C@@H](Cc2c[nH]c3ccccc23)C(=O)N[C@H](Cc2c[nH]cn2)C(=O)NCC(=O)N[C@H]([C@@H](C)O)C(=O)N[C@@H](C)C(=O)N2CCC[C@@H]2C(=O)N1)C(=O)N[C@H](C(=O)NCC(=O)N[C@@H](CCCN=C(N)N)C(=O)NCC(=O)N[C@@H](CC(=O)O)C(=O)N[C@@H](CO)C(=O)N1CCC[C@@H]1C(=O)N[C@@H](C)C(=O)O)[C@@H](C)O

IC50 [1]: 1.2 µM
Molecule: CSCC[C@H](NC(=O)[C@@H](NC(=O)[C@@H](NC(=O)[C@H](CS)NC(=O)[C@@H]1CCCN1C(=O)[C@H](CC(C)C)NC(=O)CNC(=O)[C@H](CCSC)NC(=O)[C@@H](N)CO)C(C)C)C(C)C)C(=O)O

IC50 (Integrin alpha-5/beta-1): 1100 µM
Molecule: H-VTGRGDSPA-OH [listing 1 of 2 here]

Inhibitory ratio [4]: 20.3%
Inhibitory ratio [5]: 61.2%
Molecule: H-VTGRGDSPA-OH [listing 2 of 2 here]

IC50 (Integrin alpha-5/beta-1): 290 µM
Molecule: CC(C)[C@H](NC(=O)[C@@H]1CC(=O)NCC(=O)N[C@@H](CC(N)=O)C(=O)N[C@@H](Cc2c[nH]c3ccccc23)C(=O)N[C@@H](Cc2cnc[nH]2)C(=O)NCC(=O)N[C@@H]([C@@H](C)O)C(=O)N[C@@H](C)C(=O)N2CCC[C@H]2C(=O)N1)C(=O)N[C@H](C(=O)NCC(=O)N[C@@H](CCCNC(=N)N)C(=O)NCC(=O)N[C@@H](CC(=O)O)C(=O)N[C@@H](CO)C(=O)N1CCC[C@H]1C(=O)N[C@@H](C)C(=O)O)[C@@H](C)O

IC50 (Integrin alpha-5/beta-1; b16-f10): 800 µM
Molecule: CC(C)[C@H](NC(=O)[C@H](C)NC(=O)[C@H](Cc1ccc(O)cc1)NC(=O)[C@@H](NC(=O)[C@@H]1CC(=O)NCC(=O)N[C@@H](CC(N)=O)C(=O)N[C@@H](Cc2c[nH]c3ccccc23)C(=O)N[C@@H](Cc2cnc[nH]2)C(=O)NCC(=O)N[C@@H]([C@@H](C)O)C(=O)N[C@@H](C)C(=O)N2CCC[C@H]2C(=O)N1)C(C)C)C(=O)N[C@H](C(=O)NCC(=O)N[C@@H](CCCNC(=N)N)C(=O)NCC(=O)N[C@@H](CC(=O)O)C(=O)N[C@@H](CO)C(=O)N1CCC[C@H]1C(=O)N[C@@H](C)C(N)=O)[C@@H](C)O (GNWHGTAPDVYAVTGRGDSPA-NH2; lactam N-9)
